Where “and” joins values, the source holds several entries; their conditions need not be identical. Equal values may be shown once. Toxic doses and inconclusive results are not listed.
Test system: P388 leukemia ip, CD2F1 mice, survival T/C
Experiment: NCI In Vivo Anticancer Drug Screen. Data for tumor model P388 Leukemia (intraperitoneal) in CD2F1 (CDF1) mice
Conditions: endpoint: median survival time, higher = longer survival
Outline: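 Mice carrying the transplanted tumor received test compound or vehicle. Survival was recorded in each group, and the value is the treated-group measurement divided by that of the vehicle-treated control group.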

[1] = dose: 12.5 mg/kg/injection, schedule: Q01DX009 (ip), vehicle: Klucel (hydroxypropylcellulose) (HPC)
[2] = dose: 12.5 mg/kg/injection, schedule: Q01DX009 (ip), vehicle: saline with Tween-80
[3] = dose: 25.0 mg/kg/injection, schedule: Q01DX009 (ip), vehicle: Klucel (hydroxypropylcellulose) (HPC)
[4] = dose: 25.0 mg/kg/injection, schedule: Q01DX009 (ip), vehicle: saline with Tween-80
[5] = dose: 50.0 mg/kg/injection, schedule: Q01DX009 (ip), vehicle: Klucel (hydroxypropylcellulose) (HPC)
[6] = dose: 50.0 mg/kg/injection, schedule: Q01DX009 (ip), vehicle: saline with Tween-80
[7] = dose: 100.0 mg/kg/injection, schedule: Q01DX009 (ip), vehicle: Klucel (hydroxypropylcellulose) (HPC)
[8] = dose: 100.0 mg/kg/injection, schedule: Q01DX009 (ip), vehicle: saline with Tween-80
[9] = dose: 200.0 mg/kg/injection, schedule: Q01DX009 (ip), vehicle: Klucel (hydroxypropylcellulose) (HPC)
[10] = dose: 6.25 mg/kg/injection, schedule: Q01DX009 (ip), vehicle: saline with Tween-80
[11] = dose: 50.0 mg/kg/injection, schedule: Q01DX009 (ip), vehicle: saline
[12] = dose: 100.0 mg/kg/injection, schedule: Q01DX009 (ip), vehicle: saline
[13] = dose: 200.0 mg/kg/injection, schedule: Q01DX009 (ip), vehicle: saline
[14] = dose: 200.0 mg/kg/injection, schedule: Q01DX009 (ip), vehicle: saline with Tween-80
[15] = dose: 50.0 mg/kg/injection, schedule: Q01DX005 (ip), vehicle: Klucel (hydroxypropylcellulose) (HPC)
[16] = dose: 100.0 mg/kg/injection, schedule: Q01DX005 (ip), vehicle: Klucel (hydroxypropylcellulose) (HPC)
[17] = dose: 200.0 mg/kg/injection, schedule: Q01DX005 (ip), vehicle: Klucel (hydroxypropylcellulose) (HPC)

CO[C@H]1/C=C/O[C@@]2(C)Oc3c(C)c(O)c4c(O)c(c(/C=N/N5C(C)CN(Cc6ccc(C#N)cc6)CC5C)c(O)c4c3C2=O)NC(=O)/C(C)=C\C=C\[C@H](C)[C@H](O)[C@@H](C)[C@@H](O)[C@@H](C)[C@H](OC(C)=O)[C@@H]1C (some centres not stated)
T/C [1]: 93 % of control
T/C [2]: 107 % of control
T/C [3]: 87 % of control
T/C [4]: 92 % of control
T/C [5]: 86 % of control
T/C [6]: 100 % of control and 95 % of control
T/C [7]: 107 % of control
T/C [8]: 113 % of control
T/C [9]: 107 % of control

O=C(c1ccc(Br)cc1)c1ccc(Br)cc1
T/C (dose: 10.0 mg/kg/injection, schedule: Q01DX009 (ip), vehicle: other): 100 % of control
T/C (dose: 20.0 mg/kg/injection, schedule: Q01DX009 (ip), vehicle: other): 105 % of control
T/C (dose: 40.0 mg/kg/injection, schedule: Q01DX009 (ip), vehicle: other): 92 % of control
T/C (dose: 50.0 mg/kg/injection, schedule: Q04DX003 (ip), vehicle: saline): 99 % of control
T/C (dose: 80.0 mg/kg/injection, schedule: Q01DX009 (ip), vehicle: other): 92 % of control
T/C (dose: 100.0 mg/kg/injection, schedule: Q04DX003 (ip), vehicle: saline): 93 % of control
T/C (dose: 160.0 mg/kg/injection, schedule: Q01DX009 (ip), vehicle: other): 105 % of control
T/C (dose: 200.0 mg/kg/injection, schedule: Q04DX003 (ip), vehicle: saline): 94 % of control
T/C (dose: 320.0 mg/kg/injection, schedule: Q01DX009 (ip), vehicle: other): 100 % of control
T/C (dose: 400.0 mg/kg/injection, schedule: Q04DX003 (ip), vehicle: saline): 95 % of control

N=C(N)c1ccc(SCCCCCSc2ccc(C(=N)N)cc2)cc1
T/C (dose: 3.13 mg/kg/injection, schedule: Q01DX009 (ip), vehicle: saline with Tween-80): 117 % of control
T/C [10]: 124 % of control
T/C [2]: 119 % of control

C/C(=N\NC(N)=Nc1ccc(C)cc1)c1ccc2c(c1)Cc1ccccc1-2
T/C (dose: 25.0 mg/kg/injection, schedule: Q04DX002 (ip), vehicle: saline with Tween-80): 91 % of control
T/C (dose: 50.0 mg/kg/injection, schedule: Q04DX002 (ip), vehicle: saline with Tween-80): 99 % of control
T/C (dose: 100.0 mg/kg/injection, schedule: Q04DX002 (ip), vehicle: saline with Tween-80): 97 % of control

C=CCSc1nc2ccc(NC(C)=O)cc2s1
T/C (dose: 6.25 mg/kg/injection, schedule: Q01DX009 (ip), vehicle: Klucel (hydroxypropylcellulose) (HPC)): 104 % of control
T/C [1]: 108 % of control
T/C [3]: 94 % of control

O=C(O)c1ccc(O)c(O)c1
T/C [11]: 104 % of control and 111 % of control
T/C [12]: 100 % of control and 103 % of control
T/C [13]: 103 % of control and 98 % of control
T/C (dose: 400.0 mg/kg/injection, schedule: Q01DX009 (ip), vehicle: saline): 103 % of control and 118 % of control
T/C (dose: 600.0 mg/kg/injection, schedule: Q01DX009 (ip), vehicle: saline): 100 % of control

NCCCNCCSP(=O)(O)O
T/C [2]: 106 % of control
T/C (dose: 12.5 mg/kg/injection, schedule: Q01DX009 (ip), vehicle: saline): 108 % of control
T/C [4]: 104 % of control
T/C (dose: 25.0 mg/kg/injection, schedule: Q01DX009 (ip), vehicle: saline): 100 % of control and 104 % of control
T/C [6]: 95 % of control
T/C [11]: 103 % of control and 109 % of control
T/C [12]: 104 % of control and 87 % of control
T/C [14]: 106 % of control
T/C [13]: 112 % of control

Cc1cc(O)c(C(c2ccccc2)c2c(O)cc(C)[nH]c2=O)c(=O)[nH]1
T/C [4]: 90 % of control
T/C [6]: 91 % of control
T/C [8]: 86 % of control

Cc1nn2c(-c3ccccc3)cnnc2c1-c1ccccc1
T/C [15]: 101 % of control
T/C [16]: 98 % of control
T/C [17]: 96 % of control

CCC1=C[C@H]2CN(CCc3c([nH]c4ccccc34)[C@@](C(=O)OC)(c3cc4c(cc3OC)N(C)[C@H]3[C@@](O)(C(=O)OC)[C@H](OC(C)=O)[C@]5(CC)C=CCN6CC[C@]43[C@@H]65)C2)C1
T/C (dose: 0.06 mg/kg/injection, schedule: Q01DX009 (ip), vehicle: water): 109 % of control
T/C (dose: 0.13 mg/kg/injection, schedule: Q01DX009 (ip), vehicle: water): 162 % of control
T/C (dose: 0.2 mg/kg/injection, schedule: Q01DX009 (ip), vehicle: saline): 151 % of control
T/C (dose: 0.25 mg/kg/injection, schedule: Q01DX009 (ip), vehicle: water): 106 % of control
T/C (dose: 0.4 mg/kg/injection, schedule: Q01DX009 (ip), vehicle: saline): 163 % of control
T/C (dose: 0.5 mg/kg/injection, schedule: Q04DX003 (ip), vehicle: water): 151 % of control
T/C (dose: 0.8 mg/kg/injection, schedule: Q01DX009 (ip), vehicle: saline): 178 % of control
T/C (dose: 1.0 mg/kg/injection, schedule: Q04DX003 (ip), vehicle: water): 169 % of control
T/C (dose: 2.0 mg/kg/injection, schedule: Q04DX003 (ip), vehicle: water): 205 % of control
T/C (dose: 4.0 mg/kg/injection, schedule: Q04DX003 (ip), vehicle: water): 241 % of control
T/C (dose: 8.0 mg/kg/injection, schedule: Q04DX003 (ip), vehicle: water): 87 % of control

COc1cc2c(cc1OC)-c1c3c(cc4c1[C@@H](C2)N(C)CC4)OCO3
T/C (dose: 12.5 mg/kg/injection, schedule: Q01DX009 (ip), vehicle: distilled water + Tween-80): 107 % of control
T/C [2]: 106 % of control
T/C (dose: 25.0 mg/kg/injection, schedule: Q01DX009 (ip), vehicle: distilled water + Tween-80): 107 % of control
T/C [4]: 100 % of control
T/C (dose: 50.0 mg/kg/injection, schedule: Q01DX009 (ip), vehicle: distilled water + Tween-80): 116 % of control
T/C [6]: 102 % of control

Clc1c(Cl)c(Cl)c(SC2C3CC4C(C3)C42)c(Cl)c1Cl (configuration not stated)
T/C [11]: 103 % of control
T/C [12]: 108 % of control
T/C [13]: 101 % of control

CS(=O)(=O)OCCF
T/C (dose: 0.78 mg/kg/injection, schedule: Q01DX009 (ip), vehicle: saline with Tween-80): 97 % of control
T/C (dose: 1.56 mg/kg/injection, schedule: Q01DX009 (ip), vehicle: saline with Tween-80): 100 % of control
T/C (dose: 3.12 mg/kg/injection, schedule: Q01DX009 (ip), vehicle: saline with Tween-80): 103 % of control
T/C (dose: 3.96 mg/kg/injection, schedule: Q04DX003 (ip), vehicle: saline): 109 % of control
T/C (dose: 6.0 mg/kg/injection, schedule: Q04DX003 (ip), vehicle: saline): 104 % of control
T/C [10]: 105 % of control and 111 % of control
T/C (dose: 9.0 mg/kg/injection, schedule: Q04DX003 (ip), vehicle: saline): 118 % of control
T/C [2]: 89 % of control

O=C(NC1CCCCC1)N1CCCC1
T/C [11]: 99 % of control
T/C [8]: 91 % of control
T/C [12]: 95 % of control
T/C [14]: 86 % of control
T/C [13]: 102 % of control

C#CC(=O)CCC
T/C (dose: 3.75 mg/kg/injection, schedule: Q01DX005 (ip), vehicle: saline with Tween-80): 113 % of control
T/C (dose: 7.5 mg/kg/injection, schedule: Q01DX005 (ip), vehicle: saline with Tween-80): 106 % of control
T/C (dose: 15.0 mg/kg/injection, schedule: Q01DX005 (ip), vehicle: saline with Tween-80): 105 % of control

C=C(C)C(=O)NC(C)C(=O)O (configuration not stated)
T/C [11]: 106 % of control
T/C [12]: 100 % of control
T/C [13]: 100 % of control

NS(=O)(=O)c1cccc(NC(=O)c2ccco2)c1
T/C [5]: 102 % of control
T/C [7]: 101 % of control
T/C [9]: 94 % of control

O=C(SCCO)SCCO
T/C [11]: 86 % of control
T/C [12]: 89 % of control
T/C [13]: 88 % of control

CCOc1cc2c(cc1C/C=C/c1ccccc1)OCO2
T/C (dose: 50.0 mg/kg/injection, schedule: Q01DX005 (ip), vehicle: saline with Tween-80): 100 % of control
T/C (dose: 100.0 mg/kg/injection, schedule: Q01DX005 (ip), vehicle: saline with Tween-80): 110 % of control
T/C (dose: 200.0 mg/kg/injection, schedule: Q01DX005 (ip), vehicle: saline with Tween-80): 101 % of control

O=C(CNc1ccc(Cl)cc1)c1ccc(Cl)cc1
T/C [15]: 107 % of control
T/C [16]: 99 % of control
T/C [17]: 90 % of control

O=c1[nH]c(=O)n2c(c1-c1ccccc1)OC(CBr)C2 (configuration not stated)
T/C [6]: 98 % of control
T/C [8]: 98 % of control
T/C [14]: 86 % of control

Reference: PubChem BioAssay AID330 (DTP/NCI, 2004)
